Test system: BMP4-directed C3H10T1/2
Test: Artemisinin and analogues on BMP4-directed C3H10T1/2 (morphology, Western blot)
Type: cell-based
Conditions: for cell morphology of C3H10T1/2: concentration shown in FIG. 8, from Day 0 of differentiation, vs control
Procedure: 4.3.1 Culture and Differentiation of C3H10T1/2 According to Method 2.4.1.
Artemisinin, artesunate and dihydroartemisinin were stored in DMSO at a storage concentration of 10 mMol/L. The concentration shown in FIG. 8 was added on Day 0 of differentiation. Fresh medium was replaced every two days, and the corresponding concentrations of compounds were added until the cells differentiated to mature.
The method for extracting C3H10T1/2 cell total protein was the same as 2.4.3;
Western blot method and catalog number of antibody was the same as 2.4.4.

Row | SMILES | cell morphology of C3H10T1/2 | expression of brown fat-related genes (C3H10T1/2) | expression level of UCP1 (dihydroartemisinin 1, 2.5, 5, 7.5 Mol/L, Western blot) | expression level of PGC1α (dihydroartemisinin, Western blot)
1 | C[C@H]1[C@H](OC(=O)CCC(=O)O)O[C@@H]2O[C@@]3(C)CC[C@H]4[C@H](C)CC[C@@H]1[C@@]24OO3 [artesunate] | exhibited similar morphological characteristics | – | – | –
2 | C[C@@H]1CC[C@H]2[C@@H](C)C(=O)O[C@@H]3O[C@@]4(C)CC[C@@H]1[C@]32OO4 [artemisinin] | exhibited similar morphological characteristics | – | – | –
3 | C[C@H]1[C@@H](O)O[C@@H]2O[C@@]3(C)CC[C@H]4[C@H](C)CC[C@@H]1[C@@]24OO3 [dihydroartemisinin] | exhibited similar morphological characteristics | up-regulated | gradually increase with the increase of the concentration of dihydroartemisinin | gradually increase with the increase of the concentration of dihydroartemisinin
